From PubChem BioAssay AID220 (DTP/NCI, 2004) come the findings set out here.

Values joined by “and” are separate entries in the source; they are usually repeats but may differ in a detail not shown here. Equal values may be shown once. Inconclusive results are not listed.

This test has as its system CD8F1 mice, subcutaneous mammary adenocarcinoma, T/C%. The test can be described thus: NCI In Vivo Anticancer Drug Screen. Data for tumor model Mammary Adenocarcinoma CD8F1 (subcutaneous) in CD8F1. Particulars: higher = larger tumour. The procedure, abridged: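 Antitumor activity is assessed in transplantable-tumor mice by comparing the treated group with a vehicle-treated control group. Survival or tumor size serves as the measure, reported as T divided by C.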

Setting [1] is: endpoint: median tumor weight (est.), dose: 25.0 mg/kg/injection, schedule: Q07DX005 (ip), vehicle: saline.
Setting [2] is: endpoint: median tumor weight (est.), dose: 50.0 mg/kg/injection, schedule: Q07DX005 (ip), vehicle: saline.
Where [3] appears, read: endpoint: median tumor weight (est.), dose: 100.0 mg/kg/injection, schedule: Q07DX005 (ip), vehicle: saline.
Where [4] appears, read: endpoint: median tumor weight (est.), dose: 12.5 mg/kg/injection, schedule: Q07DX005 (ip), vehicle: saline.
[5] abbreviates: endpoint: median tumor weight change, dose: 16.0 mg/kg/injection, schedule: Q01DX001 (ip), vehicle: saline with Tween-80.
[6] abbreviates: endpoint: median tumor weight change, dose: 31.0 mg/kg/injection, schedule: Q01DX001 (ip), vehicle: saline with Tween-80.
The mark [7] stands for this setting: endpoint: median tumor weight change, dose: 62.0 mg/kg/injection, schedule: Q01DX001 (ip), vehicle: saline with Tween-80.
Where [8] appears, read: endpoint: median tumor weight change, dose: 125.0 mg/kg/injection, schedule: Q01DX001 (ip), vehicle: saline with Tween-80.

In the case of `CCC(/C=C/C1OC(=O)C=CC1C)=C\C(C)C/C=C/C(C)=C/C(C)C(=O)C(C)C(O)C(C)C/C(C)=C/C(=O)O` (centres undefined), the T/C was 56 % of control (endpoint: median tumor weight change, dose: 200.0 mg/kg/injection, schedule: Q01DX001 (ip), vehicle: saline + alcohol); 49 % of control (endpoint: median tumor weight change, dose: 400.0 mg/kg/injection, schedule: Q01DX001 (ip), vehicle: saline + alcohol); 56 % of control (endpoint: median tumor weight change, dose: 800.0 mg/kg/injection, schedule: Q01DX001 (ip), vehicle: saline + alcohol); 75 % of control (endpoint: median tumor weight change, dose: 1600.0 mg/kg/injection, schedule: Q01DX001 (ip), vehicle: saline + alcohol); 61 % of control (endpoint: median tumor weight change, dose: 3200.0 mg/kg/injection, schedule: Q01DX001 (ip), vehicle: saline + alcohol).

With `NC(=O)c1c[se]c(C2OC(CO)C(O)C2O)n1` (centres undefined), the T/C was 124 % of control (endpoint: median tumor weight change, dose: 50.0 mg/kg/injection, schedule: Q01DX001 (ip), vehicle: water); 45 % of control (endpoint: median tumor weight change, dose: 75.0 mg/kg/injection, schedule: Q01DX001 (ip), vehicle: water); 83 % of control (endpoint: median tumor weight change, dose: 100.0 mg/kg/injection, schedule: Q01DX001 (ip), vehicle: water); 73 % of control (endpoint: median tumor weight change, dose: 150.0 mg/kg/injection, schedule: Q01DX001 (ip), vehicle: water); 89 % of control (endpoint: median tumor weight change, dose: 200.0 mg/kg/injection, schedule: Q01DX001 (ip), vehicle: water); 47 % of control (endpoint: median tumor weight change, dose: 300.0 mg/kg/injection, schedule: Q01DX001 (ip), vehicle: water). The T/C (endpoint: median tumor weight change, dose: 400.0 mg/kg/injection, schedule: Q01DX001 (ip), vehicle: water) was 95 % of control; the T/C (endpoint: median tumor weight change, dose: 600.0 mg/kg/injection, schedule: Q01DX001 (ip), vehicle: water) is 43 % of control; the T/C (endpoint: median tumor weight change, dose: 1200.0 mg/kg/injection, schedule: Q01DX001 (ip), vehicle: water) was 50 % of control.

Regarding `O=P1(NCCCl)OCCCN1CCCl` (centres undefined), the T/C by setting is: under setting [1], 26 % of control and 29 % of control; under setting [2], 11 % of control and 12 % of control; under setting [3], 6 % of control.

Take `CC[n+]1ccc(Nc2ccc(NC(=O)c3ccc(C(=O)Nc4ccc(Nc5cc[n+](CC)c(N)n5)cc4)cc3)cc2)nc1N`: the T/C (endpoint: median tumor weight (est.), dose: 6.25 mg/kg/injection, schedule: Q07DX005 (ip), vehicle: suspension in saline) is 257 % of control; the T/C (endpoint: median tumor weight (est.), dose: 25.0 mg/kg/injection, schedule: Q07DX005 (ip), vehicle: suspension in saline) was 77 % of control; the T/C (endpoint: median tumor weight (est.), dose: 50.0 mg/kg/injection, schedule: Q07DX005 (ip), vehicle: suspension in saline) is 45 % of control; the T/C (endpoint: median tumor weight (est.), dose: 100.0 mg/kg/injection, schedule: Q07DX005 (ip), vehicle: suspension in saline) was 41 % of control; the T/C (endpoint: median tumor weight (est.), dose: 200.0 mg/kg/injection, schedule: Q07DX005 (ip), vehicle: suspension in saline) was 20 % of control.

As to `CC(=O)N(C)c1ccc(Nc2cc(C)[nH]c3ccc4ncnc4c23)cc1`, the T/C (endpoint: median tumor weight change, dose: 125.0 mg/kg/injection, schedule: Q01DX001 (ip), vehicle: saline) was 34 % of control and 46 % of control.

As to `N#CC(OC1OC(COC2OC(CO)C(O)C(O)C2O)C(O)C(O)C1O)c1ccccc1` (centres undefined), the T/C was 71 % of control (endpoint: median tumor weight (est.), dose: 50.0 mg/kg/injection, schedule: Q07DX005 (ip), vehicle: water); 88 % of control (endpoint: median tumor weight (est.), dose: 100.0 mg/kg/injection, schedule: Q07DX005 (ip), vehicle: water); 112 % of control (endpoint: median tumor weight (est.), dose: 200.0 mg/kg/injection, schedule: Q07DX005 (ip), vehicle: water); 114 % of control (endpoint: median tumor weight (est.), dose: 400.0 mg/kg/injection, schedule: Q07DX005 (ip), vehicle: water); 82 % of control (endpoint: median tumor weight (est.), dose: 800.0 mg/kg/injection, schedule: Q07DX005 (ip), vehicle: water).

As for `CC1(CO)C(O)CCC2(C)C1CCC1CC3CC12CCC3(O)CO` (centres undefined), the T/C runs as follows: (endpoint: median tumor weight (est.), dose: 12.5 mg/kg/injection, schedule: Q07DX005 (ip), vehicle: saline with Tween-80) 39 % of control; (endpoint: median tumor weight (est.), dose: 18.75 mg/kg/injection, schedule: Q07DX005 (ip), vehicle: saline with Tween-80) 53 % of control; (endpoint: median tumor weight (est.), dose: 25.0 mg/kg/injection, schedule: Q07DX005 (ip), vehicle: saline with Tween-80) 55 % of control; (endpoint: median tumor weight (est.), dose: 37.5 mg/kg/injection, schedule: Q07DX005 (ip), vehicle: saline with Tween-80) 85 % of control; (endpoint: median tumor weight (est.), dose: 50.0 mg/kg/injection, schedule: Q07DX005 (ip), vehicle: saline with Tween-80) 60 % of control; (endpoint: median tumor weight (est.), dose: 100.0 mg/kg/injection, schedule: Q07DX005 (ip), vehicle: saline with Tween-80) 58 % of control. In addition, the T/C reads like this: (endpoint: median tumor weight (est.), dose: 200.0 mg/kg/injection, schedule: Q07DX005 (ip), vehicle: saline with Tween-80) 92 % of control; (endpoint: median tumor weight (est.), dose: 400.0 mg/kg/injection, schedule: Q07DX005 (ip), vehicle: saline with Tween-80) 13 % of control.

Turning to `O=NN(CCCl)C(=O)NCCO`, the T/C was 92 % of control (endpoint: median tumor weight change, dose: 4.0 mg/kg/injection, schedule: Q01DX001 (ip), vehicle: water); 86 % of control (endpoint: median tumor weight change, dose: 8.0 mg/kg/injection, schedule: Q01DX001 (ip), vehicle: water); 58 % of control (endpoint: median tumor weight change, dose: 16.0 mg/kg/injection, schedule: Q01DX001 (ip), vehicle: water).

As for `OCC1(CO)COC2(CCCCC2)N1`, the T/C is, setting by setting: under setting [4], 78 % of control; under setting [1], 64 % of control; under setting [2], 112 % of control; under setting [3], 105 % of control; (endpoint: median tumor weight (est.), dose: 200.0 mg/kg/injection, schedule: Q07DX005 (ip), vehicle: saline) 81 % of control; (endpoint: median tumor weight (est.), dose: 400.0 mg/kg/injection, schedule: Q07DX005 (ip), vehicle: saline) 93 % of control.

As to `C[CH2][Sn]([CH2]C)([CH2]C(=O)OC)[CH2]C(=O)OC`, the T/C under setting [5] is 78 % of control.

For the compound `CCc1ccc(C2=C(O)C(=O)C(c3ccc(CC)cc3)=C(O)C2=O)cc1`, the T/C reads like this: under setting [5], 88 % of control; under setting [6], 107 % of control; under setting [7], 92 % of control; under setting [8], 61 % of control.

In the case of `CC(C)(C)N1CC1CNC(=O)C(=O)NCC1CN1C(C)(C)C` (centres undefined), the T/C by setting is: (endpoint: median tumor weight change, dose: 15.6 mg/kg/injection, schedule: Q01DX001 (ip), vehicle: saline with Tween-80) 50 % of control; (endpoint: median tumor weight change, dose: 15.62 mg/kg/injection, schedule: Q01DX001 (ip), vehicle: saline with Tween-80) 30 % of control; (endpoint: median tumor weight change, dose: 31.25 mg/kg/injection, schedule: Q01DX001 (ip), vehicle: saline with Tween-80) 30 % of control and 37 % of control.

As for `c1ccc2c(NCCCCCCNc3c4ccccc4nc4ccccc34)c3ccccc3nc2c1`, the T/C (endpoint: median tumor weight (est.), dose: 1.25 mg/kg/injection, schedule: Q07DX005 (ip), vehicle: Klucel (hydroxypropylcellulose) (HPC)) is 97 % of control; the T/C (endpoint: median tumor weight (est.), dose: 2.5 mg/kg/injection, schedule: Q07DX005 (ip), vehicle: Klucel (hydroxypropylcellulose) (HPC)) is 95 % of control; the T/C (endpoint: median tumor weight (est.), dose: 5.0 mg/kg/injection, schedule: Q07DX005 (ip), vehicle: Klucel (hydroxypropylcellulose) (HPC)) was 58 % of control; the T/C (endpoint: median tumor weight (est.), dose: 20.0 mg/kg/injection, schedule: Q07DX005 (ip), vehicle: Klucel (hydroxypropylcellulose) (HPC)) is 47 % of control.

Take `OC1(CSc2ccccc2)CCCCC1`: where the note is “endpoint: median tumor weight change, dose: 1000.0 mg/kg/injection, schedule: Q01DX001 (ip), vehicle: saline with Tween-80”, the T/C is 13 % of control.

Take `Cc1ccc(NCCN(C)C)c2c(=O)c3cc(O)ccc3sc12`: the T/C is -8 % of control and 15 % of control (endpoint: median tumor weight change, dose: 250.0 mg/kg/injection, schedule: Q01DX001 (ip), vehicle: Klucel (hydroxypropylcellulose) (HPC)); -6 % of control (endpoint: median tumor weight change, dose: 500.0 mg/kg/injection, schedule: Q01DX001 (ip), vehicle: Klucel (hydroxypropylcellulose) (HPC)).

In the case of `OCCN1CCN(CCCN2c3ccccc3Sc3ccc(C(F)(F)F)cc32)CC1`, the T/C was 85 % of control and 109 % of control (endpoint: median tumor weight (est.), dose: 3.12 mg/kg/injection, schedule: Q07DX005 (ip), vehicle: saline); 107 % of control and 122 % of control (endpoint: median tumor weight (est.), dose: 6.25 mg/kg/injection, schedule: Q07DX005 (ip), vehicle: saline); 80 % of control and 83 % of control under setting [4]; 47 % of control and 48 % of control under setting [2].

In the case of `C=C(C)[C@@H]1CCc2c(O)c(O)c(=O)cc(C)c2C1`, the T/C runs as follows: under setting [6], 83 % of control; under setting [7], 57 % of control; under setting [8], 88 % of control; (endpoint: median tumor weight change, dose: 250.0 mg/kg/injection, schedule: Q01DX001 (ip), vehicle: saline with Tween-80) 57 % of control; (endpoint: median tumor weight change, dose: 500.0 mg/kg/injection, schedule: Q01DX001 (ip), vehicle: saline with Tween-80) 93 % of control.
